From patent US20220280661A1, “GLUCOCORTICOID RECEPTOR RADIOLIGANDS AND METHODS FOR THEIR PREPARATION AND USE” (The Regents of the University of California, priority 2019, published 2022)

Tests used:
GR [1] = assay: Immunoblot of GR in mouse tissues after JG231 treatment; format: in vivo; conditions: 4 mg/kg/day for three days intraperitoneally
Text: GR levels were not impacted in liver, kidneys, or muscle, as predicted based on the radiotracer biodistribution data.
(§1) The limitations of broad-spectrum GR modulators like corticosteroids are well known, and the severe side effects associated with their long term use (e.g. diabetes mellitus, osteoporosis) motivated drug development campaigns starting in the 1990s to identify safer GR modulators that selectively modulate GR activity (Sundahl, et al. Pharmacol. Ther. 2015, 152, 28-41). […] To test this concept, the biodistribution of ^18F-YJH08 was evaluated in mice after treatment with JG231 (FIGS. 10A and 10B). […] Using the same treatment strategy, mice were subjected to 4 mg/kg/day for three days intraperitoneally, and subsequently treated with ^18F-YJH08. […] In these regions, it appeared that JG231 suppressed radiotracer binding, perhaps indicative of GR degradation. […] Immunoblot studies corroborated the biodistribution data, showing approximately ˜50% reduction in GR expression levels due to JG231 treatment in brown fat, and no change in GR levels from other tissues, for example, kidneys, liver, and muscle (FIG. 10E). This is believed to be the first example of tissue specific GR degradation.

GR [2] = assay: Immunoblot of GR in breast cancer cell lines treated with JG231; format: cell-based, human; conditions: 24 hours
Experimental: Cells were treated with the indicated dose for 24 hours.

GR [3] = assay: 18F-YJH08 PET/biodistribution after JG231 treatment; format: in vivo, mouse; conditions: once daily for 3 days via intraperitoneal injection
Experimental: At right is shown a maximum intensity projection of supraspinal BAT and muscle from a representative mouse in either treatment arm. Mice (n=5/treatment arm) were treated with JG231 or vehicle once daily for 3 days via intraperitoneal injection.
The biodistribution data are representative of two independent experiments.
as §1, with “This is believed to be the first example of tissue specific GR degradation.” left out

## CCn1c(=O)/c(=C2\Sc3cc(Cl)ccc3N2C)s/c1=C\c1scc[n+]1Cc1ccc(Br)s1.[Cl-] [JG231, 3-((5-bromothiophen-2-yl)methyl)-2-((Z)-((E)-5-(6-chloro-3-methylbenzo[d]thiazol-2(3H)-ylidene)-3-ethyl-4-oxothiazolidin-2-ylidene)methyl)thiazol-3-ium chloride]
GR [1]
  GR levels in kidneys, liver, and muscle: no change
  reduction in GR expression levels in brown fat: ~50%
GR [2]; MCF7 cells
  GR degradation (immunoblot), MCF7: degrades GR
GR [2]; MDA MB 231 cells
  GR degradation (immunoblot), MDA MB 231: degrades GR
GR [3]
  effect on ^18F-YJH08 tissue uptake: suppressed radiotracer uptake exclusively in the supraspinal brown fat pad
